# From PubChem BioAssay (NCI)
#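 Following 48 hours of exposure in 96-well plates, responses at five concentrations were used to interpolate endpoints linearly. The concentration for 50% growth inhibition is given as GI50. TGI: concentration producing complete growth inhibition.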
# What was measured:
# Assay in all cases: NCI tumour cell line growth inhibition, 48 h
# T-47D breast = system: T-47D breast
# MDA-MB-231 breast = system: MDA-MB-231 breast
# MALME-3M melanoma = system: MALME-3M melanoma
# A498 renal = system: A498 renal
# SN12C renal = system: SN12C renal
# SNB-19 CNS = system: SNB-19 CNS
# NCI-H460 lung = system: NCI-H460 lung
# IGROV1 ovarian = system: IGROV1 ovarian
# KM12 colon = system: KM12 colon
# NCI-H226 lung = system: NCI-H226 lung
# EKVX NSCLC = system: EKVX NSCLC
# HOP-62 NSCLC = system: HOP-62 NSCLC
# COLO 205 colon = system: COLO 205 colon
# TK-10 renal = system: TK-10 renal
# BT-549 breast = system: BT-549 breast
# PC-3 prostate = system: PC-3 prostate
# SK-MEL-5 melanoma = system: SK-MEL-5 melanoma
# OVCAR-4 ovarian = system: OVCAR-4 ovarian
# K-562 leukemia = system: K-562 leukemia
# SF-539 CNS = system: SF-539 CNS
# MDA-MB-435 = system: MDA-MB-435
# DU-145 prostate = system: DU-145 prostate
# HS 578T breast = system: HS 578T breast
# UACC-257 melanoma = system: UACC-257 melanoma
# SF-295 CNS = system: SF-295 CNS
# 786-0 renal = system: 786-0 renal
# A549 NSCLC = system: A549 NSCLC
# HL-60(TB) leukemia = system: HL-60(TB) leukemia
# SNB-75 CNS = system: SNB-75 CNS
# SK-MEL-28 melanoma = system: SK-MEL-28 melanoma
# MOLT-4 leukemia = system: MOLT-4 leukemia
# SF-268 CNS = system: SF-268 CNS
# MCF7 breast = system: MCF7 breast
# OVCAR-5 ovarian = system: OVCAR-5 ovarian
# SK-OV-3 ovarian = system: SK-OV-3 ovarian
# OVCAR-8 ovarian = system: OVCAR-8 ovarian
# NCI-H23 lung = system: NCI-H23 lung
# HOP-92 NSCLC = system: HOP-92 NSCLC
# M14 melanoma = system: M14 melanoma
# HCT-116 colon = system: HCT-116 colon
# UACC-62 melanoma = system: UACC-62 melanoma
# ACHN renal = system: ACHN renal
# RXF 393 renal = system: RXF 393 renal
# LOX IMVI melanoma = system: LOX IMVI melanoma
# SW-620 colon = system: SW-620 colon
# HT29 colon = system: HT29 colon
# UO-31 renal = system: UO-31 renal
# OVCAR-3 ovarian = system: OVCAR-3 ovarian
# HCT-15 colon = system: HCT-15 colon
# NCI-H522 lung = system: NCI-H522 lung
# U251 CNS = system: U251 CNS
# MDA-MB-468 breast = system: MDA-MB-468 breast
# CAKI-1 renal = system: CAKI-1 renal
# HCC-2998 colon = system: HCC-2998 colon
compound,measurement,setting,value
Cc1cc(C(F)(F)F)ccc1C(=O)Nc1sc2c(c1C#N)CCC(=O)C2,GI50,T-47D breast,453 nM
same,TGI,T-47D breast,2520 nM
same,GI50,MDA-MB-231 breast,1560 nM
same,TGI,MDA-MB-231 breast,3390 nM
same,GI50,MALME-3M melanoma,1450 nM
same,TGI,MALME-3M melanoma,3010 nM
same,GI50,A498 renal,23200 nM
same,TGI,A498 renal,93500 nM
same,GI50,SN12C renal,1640 nM
same,TGI,SN12C renal,10900 nM
same,GI50,SNB-19 CNS,3910 nM
same,TGI,SNB-19 CNS,> 100000 nM
same,GI50,NCI-H460 lung,3160 nM
same,TGI,NCI-H460 lung,69600 nM
same,GI50,IGROV1 ovarian,3420 nM
same,TGI,IGROV1 ovarian,13500 nM
same,GI50,KM12 colon,1080 nM
same,TGI,KM12 colon,5000 nM
same,GI50,NCI-H226 lung,2830 nM
same,TGI,NCI-H226 lung,18500 nM
same,GI50,EKVX NSCLC,2630 nM
same,TGI,EKVX NSCLC,12000 nM
same,GI50,HOP-62 NSCLC,3100 nM
same,TGI,HOP-62 NSCLC,> 100000 nM
same,GI50,COLO 205 colon,2030 nM
same,TGI,COLO 205 colon,3680 nM
same,GI50,TK-10 renal,1590 nM
same,TGI,TK-10 renal,24900 nM
same,GI50,BT-549 breast,591 nM
same,TGI,BT-549 breast,3040 nM
same,GI50,PC-3 prostate,333 nM
same,TGI,PC-3 prostate,3280 nM
same,GI50,SK-MEL-5 melanoma,1540 nM
same,TGI,SK-MEL-5 melanoma,2960 nM
same,GI50,OVCAR-4 ovarian,1250 nM
same,TGI,OVCAR-4 ovarian,2940 nM
same,GI50,K-562 leukemia,240 nM
same,TGI,K-562 leukemia,> 100000 nM
same,GI50,SF-539 CNS,496 nM
same,TGI,SF-539 CNS,1900 nM
same,GI50,MDA-MB-435,1880 nM
same,TGI,MDA-MB-435,4340 nM
same,GI50,DU-145 prostate,3570 nM
same,TGI,DU-145 prostate,> 100000 nM
same,GI50,HS 578T breast,2240 nM
same,TGI,HS 578T breast,22600 nM
same,GI50,UACC-257 melanoma,1900 nM
same,TGI,UACC-257 melanoma,5280 nM
same,GI50,SF-295 CNS,2010 nM
same,TGI,SF-295 CNS,5910 nM
same,GI50,786-0 renal,3510 nM
same,TGI,786-0 renal,> 100000 nM
same,GI50,A549 NSCLC,3420 nM
same,TGI,A549 NSCLC,23100 nM
same,GI50,HL-60(TB) leukemia,448 nM
same,TGI,HL-60(TB) leukemia,13700 nM
same,GI50,SNB-75 CNS,1030 nM
same,TGI,SNB-75 CNS,6740 nM
same,GI50,SK-MEL-28 melanoma,1240 nM
same,TGI,SK-MEL-28 melanoma,2620 nM
same,GI50,MOLT-4 leukemia,619 nM
same,TGI,MOLT-4 leukemia,12300 nM
same,GI50,SF-268 CNS,2830 nM
same,TGI,SF-268 CNS,20500 nM
same,GI50,MCF7 breast,1780 nM
same,TGI,MCF7 breast,11300 nM
same,GI50,OVCAR-5 ovarian,2020 nM
same,TGI,OVCAR-5 ovarian,5940 nM
same,GI50,SK-OV-3 ovarian,9210 nM
same,TGI,SK-OV-3 ovarian,28500 nM
same,GI50,OVCAR-8 ovarian,1800 nM
same,TGI,OVCAR-8 ovarian,27300 nM
same,GI50,NCI-H23 lung,1710 nM
same,TGI,NCI-H23 lung,6500 nM
same,GI50,HOP-92 NSCLC,957 nM
same,TGI,HOP-92 NSCLC,2620 nM
same,GI50,M14 melanoma,1390 nM
same,TGI,M14 melanoma,3610 nM
same,GI50,HCT-116 colon,411 nM
same,TGI,HCT-116 colon,10300 nM
same,GI50,UACC-62 melanoma,1220 nM
same,TGI,UACC-62 melanoma,2670 nM
same,GI50,ACHN renal,1090 nM
same,TGI,ACHN renal,2570 nM
same,GI50,RXF 393 renal,659 nM
same,TGI,RXF 393 renal,3090 nM
same,GI50,LOX IMVI melanoma,1060 nM
same,TGI,LOX IMVI melanoma,3730 nM
same,GI50,SW-620 colon,504 nM
same,TGI,SW-620 colon,2570 nM
same,GI50,HT29 colon,973 nM
same,TGI,HT29 colon,3430 nM
same,GI50,UO-31 renal,1120 nM
same,TGI,UO-31 renal,2380 nM
same,GI50,OVCAR-3 ovarian,1400 nM
same,TGI,OVCAR-3 ovarian,3240 nM
same,GI50,HCT-15 colon,552 nM
same,TGI,HCT-15 colon,2360 nM
same,GI50,NCI-H522 lung,288 nM
same,TGI,NCI-H522 lung,1010 nM
same,GI50,U251 CNS,2250 nM
same,TGI,U251 CNS,13200 nM
same,GI50,MDA-MB-468 breast,1540 nM
same,TGI,MDA-MB-468 breast,5040 nM
same,GI50,CAKI-1 renal,1320 nM
same,TGI,CAKI-1 renal,2950 nM
same,GI50,HCC-2998 colon,2730 nM
same,TGI,HCC-2998 colon,9210 nM
